# Data: PMC8904520, “Characterization of a small-molecule inhibitor targeting NEMO/IKKβ to suppress colorectal cancer growth” (Signal Transduction and Targeted Therapy, 2022)
# Several values for one entry are separate records, joined by “and”; a condition that tells them apart may be missing. Equal entries are not always repeated. Where two headings read alike, the source gives them in different places.
# Legend:
# NEMO/IKKβ complex = molecular target: T1, NEMO/IKKβ complex (Homo sapiens, UniProt O14920+Q9Y6K9); assay: Co-immunoprecipitation of NEMO/IKKβ; details: Co-IP
# T1 construct: expressed in transfected cells; host or cells: HEK293T
# Experimental: The pre-cleared cell lysates were incubated with an anti-HA antibody on a rotating platform at 4 °C for 2 h, and then incubated for another 6 h with protein A/G-sepharose beads. The sepharose beads were washed three times with binding buffer, mixed with gel loading buffer and boiled for 5 min. The samples were centrifuged and the supernatants were used for western blot analysis. A specific antibody against the Flag-tag was applied for the detection of proteins.
# The IKKβ and NEMO expression vectors were constructed by subcloning the full-length cDNA to pENTER-4T1 expression vector (Flag- or HA-tagged) developed by ViGene Biosciences, as described previously.[25] The 293T cells (1 × 10^6) were plated into 60 mm dishes for 1 day, and then transfected with the relevant plasmids encoding HA-IKKβ and Flag-NEMO using Lipofectamine 2000 transfection reagent (Invitrogen). After transfection, the cells were cultured for another 24 h. Subsequently, the transfected cells were trypsinized and seeded into 60 mm dishes, followed by culturing with fresh medium containing the indicated doses of SHK for 48 h, and then collected for the Co-IP assay.
# GST-NEMO (1–196) [1] = molecular target: T2, GST-NEMO (1–196) (Homo sapiens, UniProt Q9Y6K9); assay: SPR affinity assay on captured GST-NEMO; format: binding
# T2 construct: assays using MBP-IKKβ (701–745) and GST-NEMO (1–196) peptides; made in house; host or cells: E. coli BL21(DE3)
# T2 sequence (Q9Y6K9 1-196): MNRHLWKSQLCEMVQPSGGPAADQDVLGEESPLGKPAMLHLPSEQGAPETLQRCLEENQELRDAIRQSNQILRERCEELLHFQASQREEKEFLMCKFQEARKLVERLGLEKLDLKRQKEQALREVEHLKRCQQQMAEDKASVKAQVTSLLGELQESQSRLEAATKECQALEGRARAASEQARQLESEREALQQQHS
# Experimental: (§1) According to the instructions from GE, an anti-GST antibody was immobilized onto the CM5 chip surface. The sensor surface was activated with NHS and EDC, after which 15 μg/mL of anti-GST antibody was injected for 420 s and the surface was blocked with 1 M ethanolamine, pH 8.5. […] For each analyte, 50 μg/mL of GST-G was captured for 60 s and 10 mM glycine-HCl (pH 2.1) was used to regenerate the surface. MBP-B was analyzed with 120 s injection and 120 s dissociation. A series of SHK concentrations was analyzed with 90 s injection and 90 s dissociation.
# GST-NEMO (1–196) [2] = molecular target: T2, GST-NEMO (1–196); assay: MST binding assay to NEMO
# IKKβ = molecular target: T3, IKKβ (Homo sapiens, UniProt O14920); assay: IKKβ kinase activity in LoVo cells (spectrophotometric kit); format: cell-based
# T3 construct: endogenous in cells; host or cells: LoVo cells
# T3 sequence (Q9Y6K9 whole entry partner): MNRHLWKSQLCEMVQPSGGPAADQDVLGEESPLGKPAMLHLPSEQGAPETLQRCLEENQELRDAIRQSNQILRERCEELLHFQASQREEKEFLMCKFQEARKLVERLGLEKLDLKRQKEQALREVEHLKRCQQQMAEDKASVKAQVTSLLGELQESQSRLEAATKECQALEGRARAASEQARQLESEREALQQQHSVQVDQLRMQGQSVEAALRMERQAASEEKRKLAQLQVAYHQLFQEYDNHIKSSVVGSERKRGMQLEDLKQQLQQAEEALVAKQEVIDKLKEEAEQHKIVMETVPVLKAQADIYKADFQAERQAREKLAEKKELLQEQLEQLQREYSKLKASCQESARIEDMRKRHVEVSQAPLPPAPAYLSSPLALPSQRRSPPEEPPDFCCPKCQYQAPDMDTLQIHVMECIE
# T3 sequence (O14920 whole entry): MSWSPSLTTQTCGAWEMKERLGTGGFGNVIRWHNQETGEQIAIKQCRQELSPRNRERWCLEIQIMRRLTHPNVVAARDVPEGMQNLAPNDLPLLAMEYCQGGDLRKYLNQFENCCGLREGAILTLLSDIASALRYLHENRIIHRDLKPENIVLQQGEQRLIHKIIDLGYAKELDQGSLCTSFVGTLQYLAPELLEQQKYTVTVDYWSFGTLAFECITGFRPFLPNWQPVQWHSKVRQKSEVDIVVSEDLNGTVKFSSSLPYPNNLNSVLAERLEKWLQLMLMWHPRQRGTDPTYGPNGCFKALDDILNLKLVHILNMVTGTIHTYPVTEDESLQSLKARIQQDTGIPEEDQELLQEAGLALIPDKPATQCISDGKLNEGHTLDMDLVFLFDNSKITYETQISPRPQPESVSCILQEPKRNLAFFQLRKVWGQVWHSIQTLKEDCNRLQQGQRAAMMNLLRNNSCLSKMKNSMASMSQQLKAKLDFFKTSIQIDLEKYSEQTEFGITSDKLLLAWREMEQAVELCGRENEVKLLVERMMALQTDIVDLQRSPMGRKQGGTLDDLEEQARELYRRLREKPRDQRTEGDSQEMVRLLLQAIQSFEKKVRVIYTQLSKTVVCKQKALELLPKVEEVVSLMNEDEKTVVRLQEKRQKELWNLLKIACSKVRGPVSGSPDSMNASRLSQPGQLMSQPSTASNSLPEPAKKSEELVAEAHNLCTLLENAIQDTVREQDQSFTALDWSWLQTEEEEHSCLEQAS
# Experimental: Fig. 3 Effect of SHK on NEMO/IKKβ/NF-κB signaling. a The protein levels of NEMO, p-IKKβ/IKKβ, and p-IκBα/IκBα in LoVo cells treated with the indicated doses of SHK were analyzed by western blotting. b The protein levels of NEMO, p-IKKβ/IKKβ, p-IκBα/IκBα protein in tumor tissues were analyzed by western blotting. c LoVo cells were co-transfected with pNFκB-luc containing a Renilla luciferase reporter (as internal control) for 24 h and then treated with SHK for 48 h. Luciferase activity was determined using a dual-luciferase reporter assay system. d The IKKβ kinase activity was assessed using a spectrophotometric quantitative detection kit in LoVo cells. The relative activity was calculated using the provided formula. e The subcellular localizations of p50/p65 in LoVo cells following 48 h of treatment with SHK was examined by confocal microscopy analysis. The protein levels of p65 and p50 in nucleus (f) and whole-cell lysates (g) were measured by western blot analysis. Lamin B1 and β-actin were used as controls for sample loading. h The binding of p65 and p50 to a COX-2 promoter probe was analyzed using a streptavidin-agarose pull-down assay. The data are presented as the means ± SD of at least three separate experiments. (*p < 0.05, **p < 0.01, SHK treatment group vs. vehicle control group)
# [3] = molecular target: T4, NEMO/IKKβ complex (MBP-IKKβ (701–745) / GST-NEMO (1–196)) (Homo sapiens, UniProt Q9Y6K9); assay: SPR competition assay of NEMO/IKKβ binding
# T4 construct: made in house; host or cells: E. coli BL21(DE3)
# T4 sequence (Q9Y6K9 1-196, one chain of several): as the sequence (Q9Y6K9 1-196) above
# Experimental: MBP-IKKβ was immobilized on the surface of the CM5 chip using the amine-coupling approach at a flow rate of 10 μL/min in 10 mM sodium acetate buffer (pH 5.0). The sensor surface was activated with a 7 min injection of a mixture comprising 50 mM N-hydroxysuccinimide (NHS) and 200 mM 1-ethyl-3-(3- dimethylaminopropyl) carbodiimide (EDC). Then, 33 μg/mL of IKKβ was injected to reach the target level of 500 RU and the surface was blocked with 1 M ethanolamine, pH 8.5. A series of concentrations of NEMO or SHK were injected into the flow system and analyzed for 90 or 120 s, followed by dissociation for 90 or 600 s. All binding analyses was performed in phosphate-buffered saline (PBS, pH 7.4) with 0.05% (v/v) Tween-20 at 25 °C. Prior to analysis, double reference subtractions were made to eliminate bulk refractive index changes, injection noise, and data drift. The binding affinity was determined by fitting to a Langmuir 1:1 binding model in the Biacore Evaluation software (GE Healthcare).
# as §1
# For the competition assay, we tried two methods with MBP-IKKβ and GST-NEMO immobilized separately. Mixtures including series concentrations of SHK and 1 μM GST-NEMO were tested on MBP-IKKβ-immobilized surface; while other mixtures including series concentrations of SHK and 0.5 μM MBP-IKKβ were tested on GST-NEMO-captured surface. […] By recording the binding responses at 120 s, the inhibition effects of SHK were calculated to determine the IC50.
compound,measurement,setting,value
"CC(C)=CC[C@@H](O)C1=CC(=O)c2c(O)ccc(O)c2C1=O [SHK, Shikonin]",association of full-length HA-IKKβ and Flag-NEMO,NEMO/IKKβ complex; HEK293T cells,greatly reduced
same,ability to destabilize the NEMO/IKKβ complex,NEMO/IKKβ complex; pre-formed complex,effectively reversed their association
same,Kd,GST-NEMO (1–196) [1],8290 ± 2380 nM
same,Kd,GST-NEMO (1–196) [2],14200 ± 1700 nM
same,phosphorylation and kinase activity of IKKβ,IKKβ,suppressed the phosphorylation and kinase activity of IKKβ in a dose-dependent manner
same,IC50,"[3]; IC50 for impairing binding of GST-NEMO (1–196) to MBP-IKKβ (701–745), MBP-IKKβ immobilized, SHK pre-incubated with 1 μM GST-NEMO for 30 min",176 ± 26.4 nM
same,IC50,"[3]; IC50 for inhibiting binding of MBP-IKKβ (701–745) to GST-NEMO (1–196), GST-NEMO immobilized, SHK pre-incubated with 0.5 μM MBP-IKKβ for 30 min",171 ± 35.6 nM
same,IC50,"[3]; summary value as quoted in abstract, introduction, discussion, read-out: IC50 for destabilizing / inhibiting NEMO/IKKβ complex formation",174 nM and ~170 nM
